Test results reported in the Kinase Knowledgebase extract (Sharma et al. 2016).
pIC50: −log10 of the molar value.

Target: EGFR (human) (UniProt P00533)
Sequence (P00533 whole entry, looked up): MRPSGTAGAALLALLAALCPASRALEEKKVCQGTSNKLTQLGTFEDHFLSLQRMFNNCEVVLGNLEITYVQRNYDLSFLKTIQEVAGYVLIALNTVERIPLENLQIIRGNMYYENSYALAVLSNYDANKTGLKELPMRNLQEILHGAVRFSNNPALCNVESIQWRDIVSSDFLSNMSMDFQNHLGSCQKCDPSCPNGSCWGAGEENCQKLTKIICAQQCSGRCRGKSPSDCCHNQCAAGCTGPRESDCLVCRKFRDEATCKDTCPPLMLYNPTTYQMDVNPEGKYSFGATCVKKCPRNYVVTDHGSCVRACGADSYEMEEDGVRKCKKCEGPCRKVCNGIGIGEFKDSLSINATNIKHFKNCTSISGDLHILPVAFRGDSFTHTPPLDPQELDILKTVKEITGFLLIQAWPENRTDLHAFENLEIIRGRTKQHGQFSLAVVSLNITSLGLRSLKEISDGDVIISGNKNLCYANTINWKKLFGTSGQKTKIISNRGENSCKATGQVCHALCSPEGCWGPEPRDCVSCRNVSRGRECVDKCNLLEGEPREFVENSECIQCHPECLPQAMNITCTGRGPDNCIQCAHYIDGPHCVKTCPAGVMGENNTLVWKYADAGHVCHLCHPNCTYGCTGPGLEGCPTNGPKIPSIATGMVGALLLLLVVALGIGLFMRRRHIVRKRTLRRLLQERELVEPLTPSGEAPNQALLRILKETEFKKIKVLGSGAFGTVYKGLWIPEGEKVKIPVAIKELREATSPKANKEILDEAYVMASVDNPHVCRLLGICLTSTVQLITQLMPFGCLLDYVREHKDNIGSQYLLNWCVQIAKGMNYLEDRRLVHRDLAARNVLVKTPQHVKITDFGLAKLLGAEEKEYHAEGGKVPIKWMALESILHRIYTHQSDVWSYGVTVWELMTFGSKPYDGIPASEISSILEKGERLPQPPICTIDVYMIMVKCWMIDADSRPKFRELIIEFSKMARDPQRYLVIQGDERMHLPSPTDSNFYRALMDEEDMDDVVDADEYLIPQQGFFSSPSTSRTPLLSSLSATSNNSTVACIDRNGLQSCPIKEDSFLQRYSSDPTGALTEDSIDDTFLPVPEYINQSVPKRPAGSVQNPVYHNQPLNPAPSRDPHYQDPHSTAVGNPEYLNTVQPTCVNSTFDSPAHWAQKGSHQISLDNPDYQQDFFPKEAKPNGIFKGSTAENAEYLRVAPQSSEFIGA

| Structure (SMILES) | pIC50 |
| --- | --- |
| CN(C/C=C/C(=O)N1CC[C@@H](n2nc(-c3ccc(C(=O)Nc4ncco4)cc3)c3c(N)ncnc32)C1)C1CC1 | < 8.00 |
| CN(C/C=C/C(=O)N1CC[C@@H](n2nc(-c3ccc(C(=O)Nc4ncc(C(F)(F)F)s4)cc3)c3c(N)ncnc32)C1)C1CC1 | 6.00 to 7.00 |
| Cc1ccnc(NC(=O)c2ccc(-c3nn([C@@H]4CCN(C(=O)/C=C/CNC5CC5)C4)c4ncnc(N)c34)cc2)c1 | 6.00 to 7.00 |
| CC(C)c1cnc(NC(=O)c2ccc(-c3nn([C@@H]4CCN(C(=O)/C=C/CN(C)C5CC5)C4)c4ncnc(N)c34)cc2)s1 | 6.00 to 7.00 |
| CN(C/C=C/C(=O)N[C@H]1CC[C@H](n2nc(-c3ccc(C(=O)Nc4cc(C(F)(F)F)ccn4)cc3)c3c(N)ncnc32)CC1)C1CC1 | 6.00 to 7.00 |
| CNC/C=C/C(=O)N1CC[C@@H](n2nc(-c3ccc(C(=O)Nc4cc(C)ccn4)cc3)c3c(N)ncnc32)C1 | 6.00 to 7.00 |
| CN(C/C=C/C(=O)N1CC[C@@H](n2nc(-c3ccc(C(=O)Nc4nccs4)cc3)c3c(N)ncnc32)C1)C1CC1 | > 9.00 |
| Cc1ccnc(NC(=O)c2ccc(-c3nn([C@H]4CC[C@H](NC(=O)/C=C/CN(C)C5CC5)CC4)c4ncnc(N)c34)cc2)c1 | 6.00 to 7.00 |
| CCCc1cnc(NC(=O)c2ccc(-c3nn([C@@H]4CCN(C(=O)/C=C/CN(C)C5CC5)C4)c4ncnc(N)c34)cc2)s1 | 6.00 to 7.00 |
| CCCc1ccnc(NC(=O)c2ccc(-c3nn([C@@H]4CCN(C(=O)/C=C/CN(C)C5CC5)C4)c4ncnc(N)c34)cc2)c1 | 6.00 to 7.00 |
| CN(C/C=C/C(=O)N1CC[C@@H](n2nc(-c3ccc(C(=O)Nc4ncc(C#N)s4)cc3)c3c(N)ncnc32)C1)C1CC1 | 7.00 to 9.00 |
| CN(C)C/C=C/C(=O)N1CC[C@@H](n2nc(-c3ccc(C(=O)Nc4cc(C#N)ccn4)cc3)c3c(N)ncnc32)C1 | 6.00 to 7.00 |
| CCc1cnc(NC(=O)c2ccc(-c3nn([C@@H]4CCN(C(=O)/C=C/CN(C)C5CC5)C4)c4ncnc(N)c34)cc2)s1 | 6.00 to 7.00 |
| CN(C/C=C/C(=O)N1CC[C@@H](n2nc(-c3ccc(C(=O)Nc4cc(C(F)(F)F)ccn4)cc3)c3c(N)ncnc32)C1)C1CC1 | 6.00 to 7.00 |
| CN(C/C=C/C(=O)N1CC[C@@H](n2nc(-c3ccc(C(=O)Nc4ccccn4)cc3)c3c(N)ncnc32)C1)C1CC1 | 6.00 to 7.00 |
| CN(C/C=C/C(=O)N1CC[C@@H](n2nc(-c3ccc(C(=O)Nc4ncc(C5CC5)s4)cc3)c3c(N)ncnc32)C1)C1CC1 | > 9.00 |
| CN(C)C/C=C/C(=O)N1CC[C@@H](n2nc(-c3ccc(C(=O)Nc4cc(C(F)(F)F)ccn4)cc3)c3c(N)ncnc32)C1 | 6.00 to 7.00 |
| CNC/C=C/C(=O)N1CC[C@@H](n2nc(-c3ccc(C(=O)Nc4cc(C(F)(F)F)ccn4)cc3)c3c(N)ncnc32)C1 | 7.00 to 9.00 |
| CC(C)c1ccnc(NC(=O)c2ccc(-c3nn([C@@H]4CCN(C(=O)/C=C/CN(C)C)C4)c4ncnc(N)c34)cc2)c1 | 6.00 to 7.00 |
| CC#CC(=O)N[C@H]1CC[C@H](n2nc(-c3ccc(C(=O)Nc4cc(C(F)(F)F)ccn4)cc3)c3c(N)ncnc32)CC1 | 6.00 to 7.00 |
| Nc1ncnc2c1c(-c1ccc(C(=O)Nc3cc(C(F)(F)F)ccn3)cc1)nn2[C@@H]1CCN(C(=O)/C=C/CNC2CC2)C1 | 7.00 to 9.00 |
| CN(C)C/C=C/C(=O)N1CC[C@@H](n2nc(-c3ccc(C(=O)Nc4ccccn4)cc3)c3c(N)ncnc32)C1 | 6.00 to 7.00 |
| Cc1ccnc(NC(=O)c2ccc(-c3nn([C@H]4CC[C@H](NC(=O)/C=C/CN(C)C)CC4)c4ncnc(N)c34)cc2)c1 | 6.00 to 7.00 |
